# Data from patent US6723897B2, “Methods for controlling gibberellin levels” (Monsanto Technology, LLC, priority 1998, dated 2004).
# Key:
# [1] = Half-lives of 14C-labelled GA compounds in planta; details: ^14C-labelled compound on seed of Asgrow 3237 soybeans
# Experimental: ^14C-radiolabelled compounds are obtained from Lew Mander (Australian National University). ^14C-GA3 is dissolved in water:ethanol, 80:20, v/v; ^14C-GA9 and ^14C-GA12 are dissolved in 100% ethanol. Seeds of Asgrow 3237 soybeans are treated separately with solutions of each of the ^14C-radiolabelled compounds (1.7-6.8 μg; 10-40 ppm; 111,000-2,000,000 dpm/seed) by placing one to four μl of the dosing solution directly on the seed coat (^14C-GA3, GA9, and GA12), or on the hilum portion of the seed (^14C-GA3). After evaporation of the carrier solvent (approx. one hour), the treated seed is planted in containers containing approximately 30 gm of Metromix-350, and transferred to a growth chamber. Plants are grown under a 12 hour light/12 hour dark regime at 92° F. (33° C.)and 75% humidity. The pattern of uptake and translocation of ^14C-radioactivity in treated seed is monitored up to 12 days past initial treatment. For most experiments, three replicate plants are harvested at one hour after treatment, one day after treatment (DAT), two DAT, three DAT, six or seven DAT, and 12 DAT. […] The level of ^14C-radioactivity in different plant parts is determined by extraction of plant tissues with aqueous methanol and scintillation counting. The extent of metabolism of the ^14C-labelled GA compounds in planta is determined by HPLC analysis of plant extracts. […]
# The general extraction procedure consisted of blending the plant parts in a high speed polytron tissue homogenizer for 1-5 minutes with 10-20 ml of ice-cold methanol:water, 80:20, v/v, followed by vacuum filtration through a Whatman glass fiber filter. The filter cake is re-extracted as necessary using the procedure described above until an insignificant amount of radioactivity is removed. Prior to combining the extracts from each sample, aliquots are weighed and analyzed by liquid scintillation counting (LSC) to determine the amount of extracted radioactivity in each extract. Aliquots of the air-dried filter cakes are combusted and analyzed by LSC in order to determine the amount of non-extracted radioactivity. […]
# [2] = system: AX5/antisense CPScc soybean line 46 (R2); test: Hilum seed treatment of epicotyl-intensive GA-deficient soybean, seedling height (FIG. 42); type: in vivo, Glycine max; details: 8 DAP
# Experimental: These studies are performed on soybean plants engineered to express their GA-deficient phenotype throughout the life cycle via the use of the constitutive FMV promoter (line 719, FMV/antisense CPScc). In contrast to the constitutive FMV promoter, the peak activity of the AX5 promoter is developmentally restricted to the soybean seedling axis (epicotyl) three to five days after the start of imbibition, with limited expression beyond the seedling stage of development. Soybean lines transformed with the […] cassette therefore display an epicotyl-intensive dwarf phenotype. In these lines, inhibition of the hypocotyl is modest; most of the total height reduction in these plants is due to shortening of the epicotyl. Rescue of […] soybean plants therefore presents different technical challenges from those required for rescue of constitutively GA-deficient transgenic dwarf soybean lines containing the […] construct. […] Seed from both lines is produced from greenhouse-grown plants. […] If multiple applications are made to seeds, the previous application is allowed to dry before a subsequent application is made. […] (29° C.) day and 75° F. night (24° C.). Pots are watered as necessary by overhead hand watering. Hypocotyl and epicotyl measurements are made for each plant at various stages of plant growth. […] The results are shown in FIG. 42, where the error bar represents +/-two times the standard error of the mean (n=12-15). […] The upper dashed horizontal line represents the total height of untreated wild-type […] soybeans. Measurements are made 8 days after planting.
# [3] = system: transgenic line 719 soybean; test: Field trial of seed coatings under soil compaction / different soils, GA-deficient soybean; type: in vivo, Glycine max; details: for Count (emergence) / Dwarfs (number of dwarfs not rescued) / Dwarfs (number not rescued): Line 719
# [4] = Particulate material present in solutions after mixing; type: physicochemical
# Summary of the method: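 Compounds were made up at 25 mg/ml in absolute ethanol, vortexed, and remaining particles crushed with a spatula. Vials stood overnight at room temperature and were remixed, with undissolved material noted throughout.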
# [5] = Distribution of 14C label in soybean plant parts after seed treatment
# Experimental: ^14C-radiolabelled compounds are obtained from Lew Mander (Australian National University). ^14C-GA3 is dissolved in water:ethanol, 80:20, v/v; ^14C-GA9 and ^14C-GA12 are dissolved in 100% ethanol. Seeds of Asgrow 3237 soybeans are treated separately with solutions of each of the ^14C-radiolabelled compounds (1.7-6.8 μg; 10-40 ppm; 111,000-2,000,000 dpm/seed) by placing one to four μl of the dosing solution directly on the seed coat (^14C-GA3, GA9, and GA12), or on the hilum portion of the seed (^14C-GA3). After evaporation of the carrier solvent (approx. one hour), the treated seed is planted in containers containing approximately 30 gm of Metromix-350, and transferred to a growth chamber. Plants are grown under a 12 hour light/12 hour dark regime at 92° F. (33° C.)and 75% humidity. The pattern of uptake and translocation of ^14C-radioactivity in treated seed is monitored up to 12 days past initial treatment. For most experiments, three replicate plants are harvested at one hour after treatment, one day after treatment (DAT), two DAT, three DAT, six or seven DAT, and 12 DAT. At the time of each harvest, plants are divided into leaves, epicotyl, cotyledon, hypocotyl, and roots. The level of ^14C-radioactivity in different plant parts is determined by extraction of plant tissues with aqueous methanol and scintillation counting. The extent of metabolism of the ^14C-labelled GA compounds in planta is determined by HPLC analysis of plant extracts. The details are as follows.
# The general extraction procedure consisted of blending the plant parts in a high speed polytron tissue homogenizer for 1-5 minutes with 10-20 ml of ice-cold methanol:water, 80:20, v/v, followed by vacuum filtration through a Whatman glass fiber filter. The filter cake is re-extracted as necessary using the procedure described above until an insignificant amount of radioactivity is removed. Prior to combining the extracts from each sample, aliquots are weighed and analyzed by liquid scintillation counting (LSC) to determine the amount of extracted radioactivity in each extract. Aliquots of the air-dried filter cakes are combusted and analyzed by LSC in order to determine the amount of non-extracted radioactivity. The extracts are combined and, when necessary, concentrated by rotary evaporation at a bath temperature of less than 35° C. to a small volume for analysis by HPLC to determine the extent of metabolism of the ^14C-labelled GA compounds in planta.
# [6] = Heavy soil - Loose, target rate 1.0 μg/seed, Table 23
# [7] = Heavy soil - Loose, target rate 10.0 μg/seed, Table 23
# [8] = Heavy soil - Loose, target rate 40.0 μg/seed, Table 23
# [9] = Heavy soil - compacted, target rate 1.0 μg/seed, Table 23
# [10] = Heavy soil - compacted, target rate 10.0 μg/seed, Table 23
# [11] = Heavy soil - compacted, target rate 40.0 μg/seed, Table 23
# [12] = Heavy soil - loose, target rate 40.0 μg/seed, Table 22
# [13] = Light soil - Compacted, target rate 40.0 μg/seed, Table 22
# [14] = Light soil - Loose, target rate 1.0 μg/seed, Table 24
# [15] = Light soil - Loose, target rate 10.0 μg/seed, Table 24
# [16] = Light soil - Loose, target rate 40.0 μg/seed, Table 24
# [17] = Light soil - compacted, target rate 1.0 μg/seed, Table 24
# [18] = Light soil - compacted, target rate 10.0 μg/seed, Table 24
# [19] = Light soil - compacted, target rate 40.0 μg/seed, Table 24
smiles,measurement,setting,value
C=C1C[C@]23C[C@H]1CC[C@H]2[C@]1(C)CCC[C@@](C)(C(=O)O)[C@H]1[C@@H]3C(=O)O [GA12],Half-life (days) in planta,[1],<1 days
same,effect on line 46 total height,[2],reduced plant height
same,line 46 seedling height,[2]; concentrations up to 40 μg/seed,did not increase line 46 seedling height
same,Count (emergence),[3]; [6],36.0 ab
same,Dwarfs (number of dwarfs not rescued),[3]; [6],10.0 a
same,Count (emergence),[3]; [7],35.3 abc
same,Dwarfs (number of dwarfs not rescued),[3]; [7],7.0 b
same,Count (emergence),[3]; [8],35.3 abc
same,Dwarfs (number of dwarfs not rescued),[3]; [8],3.3 c
same,Count (emergence),[3]; [9],18.7 ab
same,Dwarfs (number of dwarfs not rescued),[3]; [9],4.0 a
same,Count (emergence),[3]; [10],13.0 b-e
same,Dwarfs (number of dwarfs not rescued),[3]; [10],2.0 b
same,Count (emergence),[3]; [11],22.7 a
same,Dwarfs (number of dwarfs not rescued),[3]; [11],1.3 bc
same,Count (emergence),[3]; [12],35 abc
same,Dwarfs (number of dwarfs not rescued),[3]; [12],3.3 c
same,Count (emergence),[3]; [13],42 a
same,Dwarfs (number of dwarfs not rescued),[3]; [13],3.7 bc
same,Count (emergence),[3]; [14],46.3 a
same,Dwarfs (number not rescued),[3]; [14],17.3 b
same,Count (emergence),[3]; [15],48.3 a
same,Dwarfs (number not rescued),[3]; [15],11.3 c
same,Count (emergence),[3]; [16],46.0 a
same,Dwarfs (number not rescued),[3]; [16],7.7
same,Count (emergence),[3]; [17],40.3 a
same,Dwarfs (number not rescued),[3]; [17],8.3 a
same,Count (emergence),[3]; [18],40.0 ab
same,Dwarfs (number not rescued),[3]; [18],4.3 b
same,Count (emergence),[3]; [19],42.0 a
same,Dwarfs (number not rescued),[3]; [19],3.7 bc
same,rank of potential for rescuing GA-deficient dwarf soybeans without decreasing emergence,[3]; based on the last two field trials,GA9>GA5>GA3-3-acetate>GA3>GA12
same,solubility in water during imbibition,[4]; 0.25 mg/ml treatment solutions,less soluble in water during imbibition
same,"Particulate material present, Initial Mixing",[4]; 25 mg/ml in absolute ethanol,YES
same,"Particulate material present, O/N Incubation","[4]; 25 mg/ml in ethanol, overnight at room temperature, remixed",YES
same,"^14C Label Distribution (% of dose), Cotyledon",[5]; 3 DAP,55 % of dose
same,"^14C Label Distribution (% of dose), Hypocotyl",[5]; 3 DAP,1.7 % of dose
same,"^14C Label Distribution (% of dose), Root",[5]; 3 DAP,3.5 % of dose
same,"^14C Label Distribution (% of dose), Cotyledon",[5]; 12 DAP,45 % of dose
same,"^14C Label Distribution (% of dose), Epicotyl",[5]; 12 DAP,0.2 % of dose
same,"^14C Label Distribution (% of dose), Hypocotyl",[5]; 12 DAP,0.9 % of dose
same,"^14C Label Distribution (% of dose), Leaves",[5]; 12 DAP,0.7 % of dose
same,"^14C Label Distribution (% of dose), Root",[5]; 12 DAP,3.0 % of dose
